Experimental data published in patent publication US20070212360A1, “Modulation of mitochondrial oxygen consumption for therapeutic purposes” (priority 2006, published 2007).

Key:
[1] = test system: HIF1 responsive luciferase reporter in RKO cells; assay: 5×HRE-luciferase reporter assay in vitro; type: cell-based, human; settings: 0.5% O2 24 h, increasing concentrations, dose dependent
Experimental: FIG. 8. Increasing oxygen consumption by inhibition of PDK activity increases tumor hypoxia. (a) Luciferase activity of wildtype and HIF1α knockdown RKO cells stably transfected with a HIF1 responsive luciferase reporter gene. Cells were exposed to 0.5% O2 for 24 hours in triplicate. Luminescence is normalized to normoxic HIF wildtype cells. (b) Luciferase activity of wildtype RKO HIF1 reporter cells exposed to 0.5% O2 for 24 hours in the presence of increasing concentrations of echinomycin. Data are normalized to the increase in signal observed in the absence of drug. (c) Bioluminescent imaging in vivo. Images show a representative animal bearing an RKO reporter tumor on the left flank and an RKOShHIF1α reporter tumor on the right flank as a function of time after ip injection of 50 mg/kg DCA. […] (d) Quantification of in vivo bioluminescence. […] The data represent the mean of three independent experiments, each comprising 5 RKO and 5 RKOShHIF1α reporter tumors.
Luciferase reporter assay. […] Cells were exposed to 0.5% O2 for 24 hr, and luciferase activity was measured in triplicate using a luciferase reporter gene assay kit (Roche) and a Monolight 2010 luminometer (Analytical Luminescence Laboratory). […]

Su.86 tumors = assay: Tumor growth delay, Su.86 xenografts; type: in vivo, mouse; settings: tirapazamine followed by echinomycin at 24 hours, 6 cycles; compared to echinomycin followed by tirapazamine
Experimental: (§1) FIG. 10. Pharmacologic inhibition of HIF1 or PDK1 enhances the response of tumor xenografts to the hypoxic cytotoxin tirapazamine. For all experiments, treatment was initiated when the mean tumor volume was 100-200 mm^3. (a) RKO tumor bearing mice were treated with 0.12 mg/kg echinomycin ip followed by 30 mg/kg tirapazamine ip at 24 hours, followed by a rest day for 3 cycles. Single agents were given at the same dose, on the same schedule. (b) RKO tumor bearing mice were treated with 50 mg/kg DCA ip followed by 20 mg/kg tirapazamine ip at 4 hours daily for 14 days. Single agents were given at the same dose, on the same schedule. (c,d,e) RKO (c), RKOShHIF1α (d), or Su.86 (e) tumor bearing mice were treated with echinomycin plus tirapazamine as described above for 6 cycles (Ech+TPZ), or tirapazamine followed by echinomycin at 24 hours followed by a rest day for 6 cycles (TPZ+Ech). For all experiments, arrows indicate when treatment was stopped.
Cell lines and tumor xenografts. RKO human colon carcinoma cells and Su.86 human pancreatic carcinoma cells were obtained from the American Type Culture Collection (ATCC, Manassas, Va.). The RKOShHIF1α cell line in which HIF1α is stably knocked down by shRNA has been described previously. RKO and immortalized MEF cells were grown in Dulbecco's Modified Eagle's Media (DMEM) supplemented with 10% fetal bovine serum (FBS). […]

[2] = test system: PDK1 in wildtype and HIF1α knockout mouse embryo fibroblasts (MEFs); assay: Western blot of PDK1 in hypoxic MEFs; type: cell-based; settings: 0.5% O2 24 h, 2 ng/ml
Experimental: FIG. 11. Inhibition of HIF1 increases oxygen consumption in vitro. (a) Western blot of wildtype and HIF1α knockout MEFs exposed normoxia (N) or hypoxia (H) (0.5% O2) for 24 hours in the presence or absence of 2 ng/ml echinomycin. (b) In vitro oxygen consumption of wildtype and HIF1α knockout MEFs (b) after exposure to 24 hours of normoxia or hypoxia (0.5% O2) in the presence or absence of 2 ng/ml echinomycin. Data are normalized to normoxic values. (*) indicate a significant difference relative to control (p<0.05).
Western blots. In brief, cells were harvested directly in RIPA buffer containing protease inhibitors, protein concentrations were quantified (Pierce), 25-50 μg of total protein was electrophoresed on a reducing Tris-Tricine gel, and electroblotted to PVDF membrane. Antibodies used were rabbit anti-PDK1 (Stressgen) (1:2000), murine anti-α tubulin (Research Diagnostics) (1:2000), and rabbit anti-Bnip3 and anti-Bnip3L as described previously by Papandreou et al. (2005) Cancer research 65, 3171-8. (1:500). Primary antibodies were detected with species-specific secondary antibodies labeled with Alkaline Phosphatase (Vector labs) (1:3000) and visualized with ECF (Amersham) on a Storm 860 phosphoimager (Molecular Devices).

[3] = test system: RKO and RKOShHIF1α tumors; assay: Tumor growth delay, RKO and RKOShHIF1α xenografts; type: in vivo, mouse
Experimental: as §1
Cell lines and tumor xenografts. RKO human colon carcinoma cells and Su.86 human pancreatic carcinoma cells were obtained from the American Type Culture Collection (ATCC, Manassas, Va.). The RKOShHIF1α cell line in which HIF1α is stably knocked down by shRNA has been described previously. RKO and immortalized MEF cells were grown in Dulbecco's Modified Eagle's Media (DMEM) supplemented with 10% fetal bovine serum (FBS). Su.86 cells were grown in RPMI 1640 medium supplemented with 10% FBS. Cells were exposed to hypoxia by placing culture dishes into an Invivo2 humidified hypoxia workstation (Ruskin Technologies, Bridgend, UK) at 0.5% O2. Echinomycin (a gift of A. Giaccia, Stanford University) was included in the media at the indicated concentrations. Tumor xenografts were established by injecting 5×10^6 cells for the RKO lines or 1×10^7 cells for the Su.86 line sc into the flanks of 6-8 week old female nude mice. To monitor tumor growth, caliper measurements were made of two perpendicular diameters, and the formula (d1)(d2)(d2)(0.52) was used to calculate tumor volume. […]

`CS[C@H]1SC[C@H]2C(=O)N(C)[C@@H](C(C)C)C(=O)OC[C@@H](NC(=O)c3cnc4ccccc4n3)C(=O)N[C@@H](C)C(=O)N(C)[C@@H]1C(=O)N(C)[C@@H](C(C)C)C(=O)OC[C@@H](NC(=O)c1cnc3ccccc3n1)C(=O)N[C@@H](C)C(=O)N2C` [echinomycin] was tested, and the “hypoxic induction of luciferase in RKO reporter cells in vitro” value [1] was “completely inhibited”, the “effect on growth of Su.86 tumors, reversed schedule” value (Su.86 tumors) was “little effect” and the “hypoxic expression of PDK1 in HIF1α deficient cells” value ([2]; HIF1α knockout MEFs) was “no effect”. The “hypoxic PDK1 induction in wildtype MEFs” value ([2]; wildtype MEFs) was “blocked PDK1 induction”, the “tumor growth delay of combination compared to single agents, RKO tumors” value ([3]; 0.12 mg/kg echinomycin ip followed at 24 h by 30 mg/kg tirapazamine ip, rest day, 3 cycles) was “greater than additive” and the “effect on tumor growth, RKOShHIF1 tumors” value ([3]; echinomycin plus tirapazamine, regardless of the order the drugs were given, 6 cycles) was “no significant effect”. For the same molecule, the “effect on growth of RKO tumors, reversed schedule” value ([3]; tirapazamine followed by echinomycin at 24 hours, 6 cycles, compared to echinomycin followed by tirapazamine) was “little effect”.
